Measurements published in ChEMBL document CHEMBL4130489, “Triclosan-caffeic acid hybrids: Synthesis, leishmanicidal, trypanocidal and cytotoxic activities” (Eur J Med Chem, 2017).
Values after ≈ are worked out from the molar mass of the structure shown.

How the values were obtained:
Trypanosoma cruzi [1] = experiment: Antitrypanosomal activity against Trypanosoma cruzi; format: functional, organism-based
[2] = Selectivity index, ratio of LC50 for cytotoxicity in human U937 cells to EC50 for antileishmanial activity against GFP-tagged Leishmania panamensis MHOM/CO/87/UA140 intracellular amastigotes infected in human U937 cells; format: toxicity, cell-based
Leishmania panamensis [3] = experiment: Antileishmanial activity against GFP-tagged Leishmania panamensis MHOM/CO/87/UA140 intracellular amastigotes infected in human U937 cells incubated for 72 hrs by flow cytometry; format: functional, organism-based; conditions: MHOM/CO/87/UA140, U-937, 72 h
[4] = Selectivity index, ratio of LC50 for cytotoxicity in human U937 cells to EC50 for antitrypanosomal activity against Trypanosoma cruzi Tulahuen intracellular amastigotes transfected with beta-galactosidase infected in human U937 cells; format: toxicity, cell-based
[5] = Cytotoxicity in human U937 cells assessed as reduction in cell viability incubated for 72 hrs by MTT assay; format: cell-based, U-937; conditions: read-out: LC50
Trypanosoma cruzi [6] = experiment: Antitrypanosomal activity against Trypanosoma cruzi Tulahuen intracellular amastigotes transfected with beta-galactosidase infected in human U937 cells incubated for 72 hrs by spectrophotometry; format: functional, organism-based; conditions: U-937, 72 h
[7] = Cytotoxicity in human U937 cells; format: cell-based, U-937; conditions: read-out: LC50 (the source's name)
Leishmania panamensis [8] = experiment: Antileishmanial activity against GFP-tagged Leishmania panamensis MHOM/CO/87/UA140 amastigotes infected in human U937 cells incubated for 72 hrs by flow cytometry; format: functional, organism-based; conditions: MHOM/CO/87/UA140, U-937, 72 h
Leishmania major = experiment: Antileishmanial activity against Leishmania major promastigotes; format: functional, organism-based
Leishmania panamensis [9] = experiment: Antileishmanial activity against Leishmania panamensis axenic amastigotes; format: functional, organism-based
Trypanosoma brucei = experiment: Antitrypanosomal activity against Trypanosoma brucei bloodstream forms; format: functional

SMILES	selectivity ratio [2]	EC50 (Leishmania panamensis [3])	selectivity ratio [4]	CC50 at 72 h [5]	EC50 (Trypanosoma cruzi [6]; read-out: EC50)	further results
O=C(/C=C/c1ccc(O)c(O)c1)O[C@@H]1[C@H](O)C[C@@](O)(C(=O)O)C[C@H]1OC(=O)/C=C/c1ccc(O)c(O)c1	–	–	–	–	–	IC50 (Trypanosoma cruzi [1]): 286 µM
COc1ccc(/C=C/C(=O)OCCCCCCCOc2cc(Cl)ccc2Oc2ccc(Cl)cc2Cl)cc1OC	> 3.4	99 µM	> 12.3	337 µM	27.4 µM	–
O=C(/C=C/c1ccc(O)c(O)c1)OCCCOc1cc(Cl)ccc1Oc1ccc(Cl)cc1Cl	> 16.1	24.3 µM	> 7.48	> 392 µM	52.4 µM	–
O=C(/C=C/c1ccc(O)c(O)c1)OCCCCCCCCOc1cc(Cl)ccc1Oc1ccc(Cl)cc1Cl	3.11	12.9 µM	2.19	40.2 µM	18.4 µM	–
COc1ccc(CCC(=O)OCCCOc2cc(Cl)ccc2Oc2ccc(Cl)cc2Cl)cc1OC	6.2	40.2 µM	7.49	250 µM	33.3 µM	–
COc1ccc(/C=C/C(=O)c2ccc(OCCCCOc3cc(Cl)ccc3Oc3ccc(Cl)cc3Cl)cc2)cc1OC	–	–	–	–	–	CC50 [7]: > 200 µg/mL; EC50 (Leishmania panamensis [8]): 10.2 µg/mL (≈ 16.2 µM)
COc1ccc(/C=C/C(=O)OCCCOc2cc(Cl)ccc2Oc2ccc(Cl)cc2Cl)cc1OC	> 9.77	38.1 µM	< 10	> 372 µM	> 37.2 µM	–
COc1ccc(/C=C/C(=O)c2ccc(OCCCCCOc3cc(Cl)ccc3Oc3ccc(Cl)cc3Cl)cc2)cc1OC	–	–	–	–	–	CC50 [7]: > 200 µg/mL; EC50 (Leishmania panamensis [8]): 13.5 µg/mL (≈ 21 µM)
O=C(/C=C/c1ccc(O)c(O)c1)OCCCCCOc1cc(Cl)ccc1Oc1ccc(Cl)cc1Cl	0.53	15.3 µM	0.28	8.18 µM	29.7 µM	–
O=C(/C=C/c1ccc(O)c(O)c1)OCCCCCCCCCOc1cc(Cl)ccc1Oc1ccc(Cl)cc1Cl	0.12	30.2 µM	0.09	3.62 µM	41.3 µM	–
O=C(/C=C/c1ccc(O)c(O)c1)OCCCCOc1cc(Cl)ccc1Oc1ccc(Cl)cc1Cl	3.16	3.82 µM	1.46	12 µM	8.25 µM	–
COc1ccc(/C=C/C(=O)OCCCCOc2cc(Cl)ccc2Oc2ccc(Cl)cc2Cl)cc1OC	1.38	53.2 µM	1.72	73.4 µM	42.8 µM	–
O=C(/C=C/c1ccc(O)c(O)c1)OCCCCCCCOc1cc(Cl)ccc1Oc1ccc(Cl)cc1Cl	1.72	11.7 µM	2.29	20 µM	8.69 µM	–
O=C(/C=C/c1ccc(O)c(O)c1)OCCCCCCCCCCCCOc1cc(Cl)ccc1Oc1ccc(Cl)cc1Cl	4.08	42.6 µM	5.08	174 µM	34.2 µM	–
COc1ccc(/C=C/C(=O)OCCCCCCCCCOc2cc(Cl)ccc2Oc2ccc(Cl)cc2Cl)cc1OC	2.21	48.5 µM	3.24	107 µM	33 µM	–
COc1ccc(/C=C/C(=O)c2ccc(OCCCOc3cc(Cl)ccc3Oc3ccc(Cl)cc3Cl)cc2)cc1OC	–	–	–	–	–	CC50 [7]: > 200 µg/mL; EC50 (Leishmania panamensis [8]): 9.4 µg/mL (≈ 15.3 µM)
CC1(C)C2CCC1(C)[C@H](OC(=O)/C=C/c1ccc(O)c(O)c1)C2 (some centres not stated)	–	–	–	–	–	IC50 (Leishmania major): 48.8 µM
CCCCCCCCOC(=O)/C=C/c1ccc(O)c(O)c1	–	–	–	–	–	EC50 (Leishmania panamensis [9]): 0.67 µM
CC(C)CCOC(=O)/C=C/c1ccc(O)c(O)c1	–	–	–	–	–	MIC (Trypanosoma brucei): 0.31 µg/mL (≈ 1.24 µM)
C[C@@H]1[C@H](O)[C@@H](C)/C=C/C=C/C=C/C=C/C=C/C=C/C=C/[C@H](O[C@@H]2O[C@H](C)[C@@H](O)[C@H](N)[C@@H]2O)C[C@@H]2O[C@](O)(C[C@@H](O)C[C@@H](O)[C@H](O)CC[C@@H](O)C[C@@H](O)CC(=O)O[C@H]1C)C[C@H](O)[C@H]2C(=O)O [AMPHOTERICIN B]	842	–	–	–	–	–
O=C(Cn1ccnc1[N+](=O)[O-])NCc1ccccc1 [BENZNIDAZOLE]	–	–	17	–	–	EC50 (Trypanosoma cruzi [6]): 40.3 µM
O=C(O)/C=C/c1ccc(O)c(O)c1 [CAFFEIC ACID]	> 1	1100 µM	> 7.07	1110 µM	157 µM	–
Oc1cc(Cl)ccc1Oc1ccc(Cl)cc1Cl [TRICLOSAN]	[…]	–	[…]	[…]	49 µM	–
